# Reference: article PMC11237012, “Synthesis and preliminary evaluation of novel PET probes for GSK-3 imaging” (Scientific Reports, 2024)
# Values joined by “and” are separate entries in the source; they are usually repeats but may differ in a detail not shown here. Equal values may be shown once. Where a name gives a salt, the structure may show the parent alone.
# Tests used:
# GSK-3β = target: GSK-3β; design: method as in PMID 33840834, PMID 35295885, PMID 34423266; settings: cited from earlier work
# [1] = design: method as in PMID 33840834, PMID 35295885, PMID 34423266; settings: 2 min post injection; Sprague Dawley rats; cited from earlier work
# human GSK-3α = target: T1, human GSK-3α (Homo sapiens, UniProt P49840); assay: GSK-3α kinase inhibition assay (ADP-Glo); assay type: biochemical
# T1 construct: purchased Promega Corporation, Madison, WI
# T1 sequence (P49840 whole entry): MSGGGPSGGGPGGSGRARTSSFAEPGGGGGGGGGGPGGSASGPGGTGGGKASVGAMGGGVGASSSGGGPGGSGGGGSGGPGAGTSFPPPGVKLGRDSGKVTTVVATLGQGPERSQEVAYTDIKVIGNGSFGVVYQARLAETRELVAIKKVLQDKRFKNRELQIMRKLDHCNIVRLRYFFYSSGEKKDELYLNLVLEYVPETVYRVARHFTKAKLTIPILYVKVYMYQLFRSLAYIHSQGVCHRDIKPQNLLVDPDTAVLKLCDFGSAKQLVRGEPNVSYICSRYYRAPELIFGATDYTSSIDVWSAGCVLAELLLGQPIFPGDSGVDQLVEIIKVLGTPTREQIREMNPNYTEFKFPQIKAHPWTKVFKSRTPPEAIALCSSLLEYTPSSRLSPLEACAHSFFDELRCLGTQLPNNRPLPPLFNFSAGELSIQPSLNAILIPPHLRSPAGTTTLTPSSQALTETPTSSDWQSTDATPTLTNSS
# Description: (§1) Phosphorylation of glycogen synthase kinase substrate was quantified using a luminescent ADP-Glo™ Kinase assay system (Promega Corporation, Madison, WI).
# human GSK-3β = target: T2, human GSK-3β (Homo sapiens, UniProt P49841); assay: GSK-3β kinase inhibition assay (ADP-Glo); assay type: biochemical
# T2 construct: purchased Promega Corporation, Madison, WI
# T2 sequence (P49841 whole entry): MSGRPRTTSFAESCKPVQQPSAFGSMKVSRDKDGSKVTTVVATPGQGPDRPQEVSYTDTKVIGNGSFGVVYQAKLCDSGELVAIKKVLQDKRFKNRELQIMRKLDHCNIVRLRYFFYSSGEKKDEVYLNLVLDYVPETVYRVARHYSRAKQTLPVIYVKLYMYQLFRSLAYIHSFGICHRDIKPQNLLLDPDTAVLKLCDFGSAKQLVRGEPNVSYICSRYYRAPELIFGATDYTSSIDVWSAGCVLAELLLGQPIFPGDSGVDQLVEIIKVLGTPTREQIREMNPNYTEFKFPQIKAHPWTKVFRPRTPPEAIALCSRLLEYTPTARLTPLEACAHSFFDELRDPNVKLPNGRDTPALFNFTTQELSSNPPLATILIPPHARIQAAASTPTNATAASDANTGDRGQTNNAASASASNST
# Description: as §1
# [2] = In vitro parallel artificial membrane permeability assay (PAMPA), blood–brain barrier permeability; settings: for Papp: PAMPA
# Description: To evaluate the blood–brain barrier permeability and binding affinity of the developed PET probes[^18F]2 and [^18F]6, their respective nonradioactive versions were used. For blood–brain barrier permeability evaluation, we applied in vitro parallel artificial membrane permeability assay (PAMPA) and evaluated binding affinity via an inhibition assay to determine the IC50 value, as described in method section. We further measured the stability of both PET probes, [^18F]2 and [^18F]6, using radio thin layer chromatography (radio-TLC) over time, as also described in the method section. […] The blood–brain permeability was expressed through the permeability coefficient, P (10^–6 cm/s) and -logPe.
# [3] = Radiochemical stability in isotonic NaCl solution (rad-TLC); assay type: physicochemical; settings: 37 °C
# Procedure: (§2) The stability of PET probes [^18F]2 and [^18F]6 was measured in isotonic NaCl solution (0.9% NaCl) and mouse and human serums at 37 °C for up to 120 min by rad-TLC at 0 min, 30 min, 60 min and 120 min post incubation. The results obtained are presented in Fig. 5 and SI-Figs. S10–S15, SI-Table S1. […] The plausible explanation of the instability of [^18F]6 could be attributed to the covalent interaction of [^18F]6’s SO2F group with primary amines of amino acid residues present in the protein rich mouse and human serums. In fact, in an unrelated study, Zhao et al. reported formation of sulfonamide bond between sulfuryl fluoride and primary amine of conserved lysine residues of different kinases. […] Based on 2’s favorable blood–brain barrier permeability, nanomolar binding affinity and PET probe [^18F]2’s excellent stability in both mouse and human serums, further in vivo evaluations were performed only with PET probe [^18F]2.
# (§3) Stability of [^18F]2 and [^18F]6 was assessed in isotonic NaCl solution and human and mouse serums. To perform this stability assay, 100 µL of [^18F]2 (~ 37.0 MBq) or 100 µL of [^18F]6 (~ 37.0 MBq) as in final formulation was added to 100 µL of human serum or mouse serum in a microcentrifuge tube. The resultant mixture was incubated at 37 °C for 120 min. To assess the radiochemical stability of the probes, a small aliquot (~ 0.5 µL) was taken out from the mixture in triplicate at 0 min, 30 min, 60 min and 120 min during incubation, and analyzed on a rad-TLC using 0.5:9.5 methanol: chloroform as a mobile phase using i-TLC to estimate the stability of [^18F]2 or [^18F]6 at different time points post-incubation. After Stability preparative processes initial i-TLC development was considered as 0 min.
# [4] = Radiochemical stability in mouse serum (rad-TLC); assay type: in vitro ADME; settings: 37 °C
# Procedure: as §2, §3
# [5] = Radiochemical stability in human serum (rad-TLC); assay type: in vitro ADME; settings: 37 °C
# Procedure: as §2, §3
# [6] = design: method as in PMID 33492962, doi:10.1002/ejoc.202201031; settings: cited from earlier work
# [7] = design: method as in PMID 33492962, doi:10.1002/ejoc.202201031; settings: FVB/NJ mice; cited from earlier work
# [8] = pH 7.4, Permeability coefficient, P, Average ± SD
compound,measurement,setting,value
COc1ccc(-c2ocnc2C(=O)NCCCc2ccc([18F])nc2)cc1Cl [[^18F]OCM50],Ki,GSK-3β,0.28 nM
same,standardized uptake value (SUV),[1],~ 2.0
"O=C(Nc1cnccc1-c1ccc(OS(=O)(=O)F)cc1)c1ccnc(NC(=O)C2CC2)c1 [Compound 6, 4-(3-(2-(cyclopropanecarboxamido)isonicotinamido)pyridin-4-yl)phenyl sulfurofluoridate]",IC50,human GSK-3α,55.7 ± 4.89 nM
same,IC50,human GSK-3β,44 ± 2.84 nM
same,Papp,[2]; pH 7.4,8.75 ± 3.9 ×10⁻⁶ cm/s
"O=C(Nc1cnccc1-c1ccc(F)cc1)c1ccnc(NC(=O)C2CC2)c1 [Compound 2, 2-(cyclopropanecarboxamido)-N-(4-(4-fluorophenyl)pyridin-3-yl)isonicotinamide]",Papp,"[2]; pH 7.4, Average ± SD",31.6 ×10⁻⁶ cm/s
same,Papp,[2]; [8],36 ± 20 ×10⁻⁶ cm/s
same,"Permeability coefficient, P, Average ± SD",[2]; pH 7.4,38 ± 20 (n = 3) 10^–6 cm/s
O=C(Nc1cnccc1-c1ccc(OS(=O)(=O)[18F])cc1)c1ccnc(NC(=O)C2CC2)c1 [[^18F]6],Percentage of intact probe,[3]; 0 min,100 ± 0.0%
same,Percentage of intact probe,[3]; 30 min,100 ± 0.0%
same,Percentage of intact probe,[3]; 60 min,100 ± 0.0%
same,Percentage of intact probe,[4]; 30 min,87.30 ± 8.99%
same,Percentage of intact probe,[4]; 60 min,81.17± 6.38%
same,Percentage of intact probe,[4]; 120 min,67.01 ± 4.93% and 67.01 ± 6.38%
same,Percentage of intact probe,[5]; 30 min,92.46± 2.61% and 92.46 ± 2.6%
same,Percentage of intact probe,[5]; 60 min,80.13± 14.24%
same,Percentage of intact probe,[5]; 120 min,66.20 ± 6.38% and 66.20 ± 4.93%
"CC(C)NCC(O)COc1cccc2ccccc12 (centres unmarked) [Propranolol HCl, reference compound]",Papp,[2]; [8],32 ± 1 ×10⁻⁶ cm/s
O=C(Nc1cnccc1-c1ccc([18F])nc1)c1ccnc(NC(=O)C2CC2)c1 [[^18F]CNBI],metabolic stability,[6],moderate
same,brain uptake,[7],poor
